Reference: patent US20210187128A1, “COLOR CHANGING SILK PATCH FOR VISIBLE ROS DETECTION” (University of Central Florida Research Foundation, Inc., priority 2019, published 2021)

How the values were obtained:
[1] = tested on: human skin keratinocyte (HaCat) cells; test: In vitro cellular biocompatibility of Amplex Red by MTT assay; format: cell-based; details: for cellular viability: highest concentration of 388 μM, beyond 80% considered biocompatible
Method: Amplex Red compound was tested for in vitro cellular toxicity analysis against the human skin keratinocyte (HaCat) cells (purchased from ATCC, USA) using cell culture-based MTT assay. Herein, 10,000 cells were grown overnight into a 96 well plate using DMEM:F12 cell culture media. Different concentrations of Amplex red compound were prepared using incomplete cell culture media and incubated with HaCat cells for a time period of 24 hours and 48 hours respectively. Post incubation time period, MTT analysis was performed using the standard protocol described in Singh 2018, herein incorporated by reference into this disclosure in its entirety. (S. (Singh, A. Ly, S. Das, T. S. Sakthivel, S. Barkam and S. Seal, Artif. Cells, Nanomed., Biotechnol., 2018, 1-8). MTT assay compound (Thiazyolyl blue tetrazolium bromide) was then added for measuring the cellular viability, and absorbance was recorded for treated samples in comparison to control samples (HaCat cells only) and data analysis was performed.

[2] = cited from earlier work

SMILES: CC(=O)N1c2ccc(O)cc2Oc2cc(O)ccc21 [Amplex Red]
- toxicity to the cells [1]: completely non-toxic
- concentration found to be highly biocompatible ([1]; 24 hours): up to 388 μM
- cellular viability ([1]; 24 hours): > 80%
- concentration found to be highly biocompatible ([1]; 48 hours): up to 388 μM
- cellular viability ([1]; 48 hours): > 80%
- detection limit for H2O2 in solutions ([2]; in solutions): 10 picomolar
- amount of H2O2 detected (limit of detection) ([2]; with HRP, 100 μL volume): 10 picomoles
